Laboratory results as given in patent US10226451B2, “Substituted bicyclic compounds as bromodomain inhibitors” (ZENITH EPIGENETICS LTD, priority 2013, dated 2019).

Legend:
[1] = test system: hIL-17 mRNA in human peripheral blood mononuclear cells; assay: Inhibition of hIL-17 mRNA transcription in OKT3-stimulated PBMC; format: cell-based; details: OKT3 antibody, 6 h, read-out: IL-17 activity
Protocol: In this example, hIL-17 mRNA in human peripheral blood mononuclear cells were quantitated to measure the transcriptional inhibition of hIL-17 when treated with a compound of the present disclosure.
Human peripheral blood mononuclear cells were plated (2.0×10^5 cells per well) in a 96-well plate in 45 μL OpTimizer T Cell expansion media (Life Technologies) containing 20 ng/ml IL-2 and penicillin/streptomycin. The cells were treated with increasing concentrations of the test compound or DMSO (0.1%), and incubated at 37° C., 5% CO2 for 1 h before addition of 10× stock OKT3 antibody at 10 ug/ml in media. Triplicate wells were used for each concentration. Cells were incubated at 37° C., 5% CO2 for 6 h before the cells were harvested. At time of harvest, cells were pelleted by centrifugation at 800 rpm for 5 min. Cells were harvested using the mRNA Catcher PLUS kit according to manufacturer's instructions. The eluted mRNA was then used in a one-step quantitative real-time PCR reaction, using components of the RNA UltraSense™ One-Step Kit (Life Technologies) together with Applied Biosystems TaqMan® primer-probes for hIL-17 and Cyclophilin. Real-time PCR plates were run on a ViiA™7 real time PCR machine (Applied Biosystems), data was analyzed, normalizing the Ct values for hIL-17 to an internal control, prior to determining the fold induction of each unknown sample, relative to the control.

[2] = test system: Human AML MV-4-11 cells; assay: Inhibition of cell proliferation in MV4-11 cells (CellTiter Aqueous One); format: cell-based; details: 72 h
Protocol: In this example, cell titer in MV4-11 cells were quantitated to measure the inhibition of proliferation when treated with a compound of the present disclosure.
MV4-11 cells (CRL-9591) were plated at a density of 5×10^4 cells per well in 96 well flat bottom plates and treated with increasing concentrations of test compound or DMSO (0.1%) in IMDM media containing 10% FBS and penicillin/streptomycin. Triplicate wells were used for each concentration and a well containing only media was used as a control. Plates were incubated at 37° C., 5% CO2 for 72 h before adding 20 μL of the CellTiter Aqueous One Solution (Promega) to each well and incubated at 37° C., 5% CO2 for an additional 3-4 h. The absorbance was read at 490 nm in a spectrophotometer and the percentage of cell titer relative to DMSO-treated cells was calculated after correcting for background by subtracting the blank well's signal. IC50 values were calculated using the Graph Pad Prism software.

[3] = test system: hIL-6 mRNA in U937 cells; assay: Inhibition of hIL-6 mRNA transcription in LPS-stimulated U937 cells; format: cell-based; details: Homo sapiens, U-937, PMA-differentiated U937 cells, LPS 1 ug/mL, 3 h, read-out: IL-6 activity
Protocol: In this example, hIL-6 mRNA in tissue culture cells were quantitated to measure the transcriptional inhibition of hIL-6 when treated with a compound of the present disclosure.
Human leukemic monocyte lymphoma U937 cells (CRL-1593.2) were plated at a density of 3.2×10^4 cells per well in a 96-well plate in 100 μL RPMI-1640 containing 10% FBS and penicillin/streptomycin, and differentiated into macrophages for 3 days in 60 ng/mL PMA ([…]) at 37° C. in 5% CO2 prior to the addition of compound. The cells were pretreated for 1 h with increasing concentrations of test compound in 0.1% DMSO prior to stimulation with 1 ug/mL lipopolysaccharide from Escherichia coli. Triplicate wells were used for each concentration. The cells were incubated at 37° C., 5% CO2 for 3 h before the cells were harvested. At time of harvest, media was removed and cells were rinsed in 200 μL PBS. Cells were harvested using the mRNA Catcher PLUS kit according to manufacturer's instructions. The eluted mRNA was then used in a one-step quantitative real-time PCR reaction using components of the RNA UltraSense™ One-Step Kit (Life Technologies) together with Applied Biosystems TaqMan® primer-probes for hIL-6 and Cyclophilin. Real-time PCR plates were run on a ViiA™7 real time PCR machine (Applied Biosystems), data was analyzed, normalizing the Ct values for hIL-6 to an internal control, prior to determining the fold expression of each sample, relative to the control.

[4] = test system: c-myc in Human AML MV4-11 cells; assay: Inhibition of c-MYC expression (mRNA, real-time PCR) in MV4-11 cells; format: cell-based; details: 3 h, mRNA by real-time PCR
Protocol: MV4-11 cells (CRL-9591) were plated at a density of 2.5×10^4 cells per well in 96 well U-bottom plates and treated with increasing concentrations of test compound or DMSO (0.1%) in IMDM media containing 10% FBS and penicillin/streptomycin, and incubated for 3 h at 37° C. Triplicate wells were used for each concentration. Cells were pelleted by centrifugation and harvested using the mRNA Catcher PLUS kit according to manufacturer's instructions. The eluted mRNA isolated was then used in a one-step quantitative real-time PCR reaction, using components of the RNA UltraSense™ One-Step Kit (Life Technologies) together with Applied Biosystems TaqMan® primer-probes for cMYC and Cyclophilin. Real-time PCR plates were run on a ViiA™7 real time PCR machine (Applied Biosystems), data was analyzed, normalizing the Ct values for hMYC to an internal control, prior to determining the fold expression of each sample, relative to the control.

[5] = target: T1, Brd4 bromodomain 1 (BRD4(1)) (Homo sapiens, UniProt O60885); assay: Inhibition of tetra-acetylated histone H4 binding to Brd4 bromodomain 1 (HTRF/FRET); details: tetra-acetylated histone H4 peptide, His-tagged bromodomain 200 nM, 2 h
T1 construct: made in house; host or cells: E. coli BL21(DE3)
Protocol: Proteins were cloned and overexpressed with a N-terminal 6×His tag, then purified by nickel affinity followed by size exclusion chromatography. Briefly, E. coli BL21(DE3) cells were transformed with a recombinant expression vector encoding N-terminally Nickel affinity tagged bromodomains from Brd2, Brd3, Brd4. Cell cultures were incubated at 37° C. with shaking to the appropriate density and induced overnight with IPTG. The supernatant of lysed cells was loaded onto Ni-IDA column for purification. Eluted protein was pooled, concentrated and further purified by size exclusion chromatography. Fractions representing monomeric protein were pooled, concentrated, aliquoted, and frozen at −80° C. for use in subsequent experiments.
Binding of tetra-acetylated histone H4 and BET bromodomains was confirmed by a Homogenous Time Resolved Fluorescence Resonance Energy Transfer (HTRF®) method. N-terminally His-tagged bromodomains (200 nM) and biotinylated tetra-acetylated histone H4 peptide (25-50 nM, Millipore) were incubated in the presence of Europium Cryptate-labeled streptavidin (Cisbio Cat. #610SAKLB) and XL665-labeled monoclonal anti-His antibody (Cisbio Cat. #61HISXLB) in a white 96 well microtiter plate (Greiner). For inhibition assays, serially diluted test compound was added to these reactions in a 0.2% final concentration of DMSO. Duplicate wells were used for each concentration tested. Final buffer concentrations were 30 mM HEPES pH 7.4, 30 mM NaCl, 0.3 mM CHAPS, 20 mM phosphate pH 7.0, 320 mM KF, 0.08% BSA. After a 2 h incubation at room temperature, fluorescence was measured at 665 and 620 nm with a SynergyH4 plate reader (Biotek). The binding inhibitory activity was shown by a decrease in 665 nm relative to 620 nm fluorescence. IC50 values were determined from a dose response curve.

SMILES | IC50 [1] [nM] | IC50 [2] [nM] | IC50 [3] [nM] | IC50 [4] [nM] | IC50 [5] [nM]
Cc1noc(C)c1-c1cc(-c2c(C)noc2C)c2c(c1)[nH]c(=O)n2C [Example Compound 2, 5,7-bis(3,5-dimethylisoxazol-4-yl)-1-methyl-1H-benzo[d]imidazol-2(3H)-one] | ≤ 300 | 300 to 3000 | ≤ 300 | ≤ 300 | ≤ 300
Cc1ncccc1Nc1cc(-c2c(C)noc2C)cc2[nH]c(=O)n(C)c12 [Example Compound 27, 5-(3,5-dimethylisoxazol-4-yl)-1-methyl-7-((2-methylpyridin-3-yl)amino)-1H-benzo[d]imidazol-2(3H)-one] | – | 300 to 3000 | ≤ 300 | ≤ 300 | ≤ 300
Cc1ccc(C(N)=O)cc1-c1cc(-c2c(C)noc2C)cc2[nH]c(=O)n(C)c12 [Example Compound 29, 3-(6-(3,5-dimethylisoxazol-4-yl)-3-methyl-2-oxo-2,3-dihydro-1H-benzo[d]imidazol-4-yl)-4-methylbenzamide] | – | 300 to 3000 | 300 to 3000 | ≤ 300 | ≤ 300
Cc1ncccc1Oc1cc(-c2c(C)noc2C)cc2[nH]c(=O)n(C)c12 [Example Compound 31, 5-(3,5-dimethylisoxazol-4-yl)-1-methyl-7-((2-methylpyridin-3-yl)oxy)-1H-benzo[d]imidazol-2(3H)-one] | – | 300 to 3000 | ≤ 300 | 300 to 3000 | ≤ 300
Cc1noc(C)c1Nc1cc(-c2c(C)noc2C)cc2[nH]c(=O)n(C)c12 [Example Compound 33, 5-(3,5-dimethylisoxazol-4-yl)-7-((3,5-dimethylisoxazol-4-yl)amino)-1-methyl-1H-benzo[d]imidazol-2(3H)-one] | – | 300 to 3000 | 300 to 3000 | ≤ 300 | ≤ 300
Cc1ccccc1-c1cc(-c2c(C)noc2C)cc2[nH]c(=O)n(C)c12 [Example Compound 40, 5-(3,5-dimethylisoxazol-4-yl)-1-methyl-7-(o-tolyl)-1H-benzo[d]imidazol-2(3H)-one] | – | 300 to 3000 | 300 to 3000 | ≤ 300 | ≤ 300
Cc1nc(C)c(-c2cc(-c3c(C)noc3C)cc3[nH]c(=O)n(C)c23)s1 [Example Compound 44, 5-(3,5-dimethylisoxazol-4-yl)-7-(2,4-dimethylthiazol-5-yl)-1-methyl-1H-benzo[d]imidazol-2(3H)-one] | – | 3000 to 30000 | 300 to 3000 | 300 to 3000 | 300 to 3000
COc1nc(C)ccc1-c1cc(-c2c(C)noc2C)cc2[nH]c(=O)n(C)c12 [Example Compound 45, 5-(3,5-dimethylisoxazol-4-yl)-7-(2-methoxy-6-methylpyridin-3-yl)-1-methyl-1H-benzo[d]imidazol-2(3H)-one] | – | 300 to 3000 | 300 to 3000 | ≤ 300 | 300 to 3000

Results, then the molecule that gave them:

IC50 [1] [nM] | IC50 [2] [nM] | IC50 [3] [nM] | IC50 [4] [nM] | IC50 [5] [nM] | SMILES
300 to 3000 | ≤ 300 | ≤ 300 | ≤ 300 | ≤ 300 | Cc1noc(C)c1-c1cc(-c2ccccc2C(F)(F)F)c2c(c1)[nH]c(=O)n2C [Example Compound 5, 5-(3,5-dimethylisoxazol-4-yl)-1-methyl-7-(2-(trifluoromethyl)phenyl)-1H-benzo[d]imidazol-2(3H)-one]
– | 300 to 3000 | 300 to 3000 | ≤ 300 | ≤ 300 | Cc1nn(C)c(C)c1Nc1cc(-c2c(C)noc2C)cc2[nH]c(=O)n(C)c12 [Example Compound 26, 5-(3,5-dimethylisoxazol-4-yl)-1-methyl-7-((1,3,5-trimethyl-1H-pyrazol-4-yl)amino)-1H-benzo[d]imidazol-2(3H)-one]
– | 300 to 3000 | ≤ 300 | ≤ 300 | ≤ 300 | Cc1n[nH]c(C)c1-c1cc(-c2c(C)noc2CO)cc2[nH]c(=O)n(C)c12 [Example Compound 32, 7-(3,5-dimethyl-1H-pyrazol-4-yl)-5-(5-(hydroxymethyl)-3-methylisoxazol-4-yl)-1-methyl-1H-benzo[d]imidazol-2(3H)-one]
– | 300 to 3000 | ≤ 300 | ≤ 300 | ≤ 300 | Cc1noc(C)c1-c1cc(-c2cccc3ccccc23)c2c(c1)[nH]c(=O)n2C [Example Compound 34, 5-(3,5-dimethylisoxazol-4-yl)-1-methyl-7-(naphthalen-1-yl)-1H-benzo[d]imidazol-2(3H)-one]
– | 300 to 3000 | 300 to 3000 | 300 to 3000 | ≤ 300 | Cc1cnccc1-c1cc(-c2c(C)noc2C)cc2[nH]c(=O)n(C)c12 [Example Compound 38, 5-(3,5-dimethylisoxazol-4-yl)-1-methyl-7-(3-methylpyridin-4-yl)-1H-benzo[d]imidazol-2(3H)-one]
– | 300 to 3000 | ≤ 300 | ≤ 300 | ≤ 300 | Cc1cncc(C)c1-c1cc(-c2c(C)noc2C)cc2[nH]c(=O)n(C)c12 [Example Compound 39, 5-(3,5-dimethylisoxazol-4-yl)-7-(3,5-dimethylpyridin-4-yl)-1-methyl-1H-benzo[d]imidazol-2(3H)-one]
